Results taken from PubChem BioAssay (NCI).
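Cells were grown in 96-well plates and exposed to each compound for 48 hours at five concentrations; endpoints were interpolated linearly between bracketing concentrations, or set to the highest concentration if not reached. At the GI50, growth is halved. TGI: total growth inhibition.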

Columns and labels:
Assay in all cases: growth of human tumour cells (NCI), 48 h
MALME-3M melanoma = tested on: MALME-3M melanoma
PC-3 prostate = tested on: PC-3 prostate
HOP-92 NSCLC = tested on: HOP-92 NSCLC
SF-539 CNS = tested on: SF-539 CNS
OVCAR-5 ovarian = tested on: OVCAR-5 ovarian
SK-OV-3 ovarian = tested on: SK-OV-3 ovarian
CCRF-CEM leukemia = tested on: CCRF-CEM leukemia
UACC-257 melanoma = tested on: UACC-257 melanoma
HOP-62 NSCLC = tested on: HOP-62 NSCLC
SNB-19 CNS = tested on: SNB-19 CNS
EKVX NSCLC = tested on: EKVX NSCLC
OVCAR-4 ovarian = tested on: OVCAR-4 ovarian
HCC-2998 colon = tested on: HCC-2998 colon
SF-295 CNS = tested on: SF-295 CNS
UO-31 renal = tested on: UO-31 renal
HL-60(TB) leukemia = tested on: HL-60(TB) leukemia
HCT-116 colon = tested on: HCT-116 colon
SNB-75 CNS = tested on: SNB-75 CNS
BT-549 breast = tested on: BT-549 breast
RXF 393 renal = tested on: RXF 393 renal
NCI/ADR-RES ovarian = tested on: NCI/ADR-RES ovarian
HCT-15 colon = tested on: HCT-15 colon
SN12C renal = tested on: SN12C renal
MCF7 breast = tested on: MCF7 breast
NCI-H23 lung = tested on: NCI-H23 lung
ACHN renal = tested on: ACHN renal
NCI-H522 lung = tested on: NCI-H522 lung
SK-MEL-2 melanoma = tested on: SK-MEL-2 melanoma
T-47D breast = tested on: T-47D breast
SW-620 colon = tested on: SW-620 colon

O=C(CN1CCN(c2ncnc3c2cnn3-c2ccccc2)CC1)Nc1nncs1
TGI (MALME-3M melanoma): 3.3 µM | GI50 (PC-3 prostate): 4.33 µM | TGI (PC-3 prostate): 17.1 µM | GI50 (HOP-92 NSCLC): 1570 nM | TGI (HOP-92 NSCLC): 3.46 µM | GI50 (SF-539 CNS): 1760 nM | TGI (SF-539 CNS): 3.32 µM | GI50 (OVCAR-5 ovarian): 6.41 µM | TGI (OVCAR-5 ovarian): 19.3 µM | GI50 (SK-OV-3 ovarian): 12.5 µM | TGI (SK-OV-3 ovarian): 25 µM | GI50 (CCRF-CEM leukemia): 2550 nM | TGI (CCRF-CEM leukemia): 7.17 µM | GI50 (UACC-257 melanoma): 14.1 µM | TGI (UACC-257 melanoma): 28.1 µM | GI50 (HOP-62 NSCLC): 1620 nM | TGI (HOP-62 NSCLC): 3.29 µM | GI50 (SNB-19 CNS): 12.2 µM | TGI (SNB-19 CNS): 24.6 µM | GI50 (EKVX NSCLC): 2900 nM | TGI (EKVX NSCLC): 11.1 µM | GI50 (OVCAR-4 ovarian): 10.3 µM | TGI (OVCAR-4 ovarian): 28.1 µM | GI50 (HCC-2998 colon): 13.6 µM | TGI (HCC-2998 colon): 26.4 µM | GI50 (SF-295 CNS): 10.3 µM | TGI (SF-295 CNS): 22.3 µM | GI50 (UO-31 renal): 1170 nM | TGI (UO-31 renal): 2390 nM | GI50 (HL-60(TB) leukemia): 10.4 µM | TGI (HL-60(TB) leukemia): 39.5 µM | GI50 (HCT-116 colon): 3.75 µM | TGI (HCT-116 colon): 14.5 µM | GI50 (SNB-75 CNS): 15.1 µM | TGI (SNB-75 CNS): 30.5 µM | GI50 (BT-549 breast): 1550 nM | TGI (BT-549 breast): 3.02 µM | GI50 (RXF 393 renal): 1680 nM | TGI (RXF 393 renal): 3.31 µM | GI50 (NCI/ADR-RES ovarian): 1770 nM | TGI (NCI/ADR-RES ovarian): 3.69 µM | GI50 (HCT-15 colon): 1790 nM | TGI (HCT-15 colon): 3.42 µM | GI50 (SN12C renal): 1940 nM | TGI (SN12C renal): 5.06 µM | GI50 (MCF7 breast): 4.32 µM | TGI (MCF7 breast): 18 µM | GI50 (NCI-H23 lung): 1740 nM | TGI (NCI-H23 lung): 3.57 µM | GI50 (ACHN renal): 1790 nM | TGI (ACHN renal): 3.18 µM | GI50 (NCI-H522 lung): 1620 nM | TGI (NCI-H522 lung): 3.09 µM | GI50 (SK-MEL-2 melanoma): 12.6 µM | TGI (SK-MEL-2 melanoma): 25.8 µM | GI50 (T-47D breast): 7.93 µM | TGI (T-47D breast): 24.1 µM | GI50 (SW-620 colon): 4.99 µM | TGI (SW-620 colon): 16.1 µM
